The results in this text go back to patent publication US20040039530A1, “Pharmacokinetic tool and method for predicting metabolism of a compound in a mammal” (priority 2003, published 2004).

Each structure is given as a SMILES string.

This series is described as follows: Hepatocyte assay: concentration versus time data of parent compound, fitted for Km, Vmax and Kd. How it is done: Traditionally, initial experiments were performed to get a “ball park” number around the Km, then additional studies performed “near” that concentration. A data analyst, or fitting expert, then took the data and determined the Km and Vmax. Some expertise is required to be able to interpret the initial studies and then to fit the data to determine Km. […] Especially preferred concentrations are 0.4, 2, 10, 50, 125 and 250 μM.
Equation 1 is the equation that incorporates transport and makes the assumption that the changes in concentration with time cannot be fully explained using the Michaelis-Menten equation alone. Kd·C is the transport term where Kd is the first order rate constant and C is the concentration outside of the hepatocyte or cell. dC/dt is the rate of metabolism, Vmax is the maximum possible rate of metabolism and Km is the Michaelis-Menten constant defined as concentration where dC/dt equals ½*Vmax. [formula]
The best fit lines and simulated data are obtained using a minimization algorithm capable of determining Vmax, Km, and Kd values that provide minimum deviation of the simulated data from the experimental data. In this example the minimization algorithms were completed using the computer based application, Kinetica®.
Briefly, the minimization algorithms uses the main function “mrqmin” that relies on several other functions to complete the analysis. This function assignees different initial conditions to fitted variables and picks the best set of results based on the minimal value of the computed “sum of squares”. Some statistical information can be collected in this routine as well. The “mrqmin” function performs one iteration of Marquardt method. Algorithmically, it is the same as listed in Numerical Recipes with modifications to parameter input, output and exchanges, and some modifications to intermediate computations. The “mrqmin” calls “mrqcof” function for some intermediate computations. […]
Goodness of fit is determined by evaluation of % CV, and percent unchanged parent compounds remaining at 240 minutes at 0.4 μM.

The term Km denotes the substrate concentration at which the rate is half of its maximum.

As for `Oc1ccc2c3c1O[C@H]1[C@@H](O)CC[C@@]4(O)[C@@H](C2)N(CC2CCC2)CC[C@]314` [Nalbuphine], the Km is 12.2 µM (Initial concentrations, hepatocyte assay); 10.9 µM (Std (standardized) concentrations, hepatocyte assay); 10 to 50 µM (determined by non-linear fitting and minimization, compound-specific initial concentrations (Table 9)).
